Test results taken from patent US20240209011A1, “HETEROAROMATIC PHOSPHONIUM SALTS FOR TREATING CANCER” (FLORATEK PHARMA S.A., priority 2021, published 2024).

Tests used:
[1] = test system: pancreatic PDX; experiment: Activity against pancreatic PDX; type: cell-based; conditions: pancreatic PDX growth; summary of Table 20
Description: (§1) PDX-derived cell cultures were obtained from tumors explanted from mice and isolated by mechanical and enzymatic dissociation. […] Cells were harvested and seeded in 96-wells plates at a density of 1.25 to 5×10^3 cells/well for cytotoxicity assays. Cells were incubated 48 h at 37° C. prior to addition of test molecules and vehicle (DMSO, 0.1%) at desired final concentrations. Cell viability was assessed before drugs' addition (To) and 5 days after test molecules addition by measuring ATP cell content using CellTiter-Glo® Luminescent Cell Viability Assay (Promega) according to the manufacturer's instructions. Luciferase activity was measured on a luminometer (PerkinElmer® EnVision™). Each concentration of compounds was tested in triplicate.
(§2) Viability was calculated as a percentage of ATP value compared to vehicle treated controls.
(§3) For PDX primary cell cultures, the tumour tissue was washed with PBS containing antibiotic-antimycotic and non-tumour tissue and necrotic tumour tissues were separated. The tumour tissue was transferred to a new dish and cut into 1-2 mm^3 fragments, resuspended in RPMI-1640 medium and centrifuged at 1,200 rpm for 6 min at room temperature. The pelleted material was resuspended with 15 mL of Tumour Cell Digestion Solution and incubated at 37° C. for 1 hour with agitation. Following further addition of media, centrifugation and passage through a […] cell strainer, the homogenous cell mixture was layered onto 15 mL of Ficoll-Paque PLUS in a 50 mL conical tube and centrifuged for 15 min at 1,600 rpm. The interface cells were collected, washed with media, separated by centrifugation at 1,200 rpm. The cell pellet was resuspended in serum free media supplemented with growth factors. 10,000 cells/wells were plated in a 96 well plate and incubated at 37° C., 5% CO2, 95% air and 100% relative humidity overnight. The cytotoxicity assay was conducted as above. IC50 values represent absolute IC50.

[2] = test system: lung PDX; experiment: Activity against lung PDX; type: cell-based; conditions: lung PDX growth; Table 16
Description: as §1, §2, §3

[3] = test system: esophagus PDX; experiment: Activity against esophagus PDX; type: cell-based; conditions: esophagus PDX growth; summary of Table 10
Description: as §1, §2, §3

[4] = test system: bile duct PDX; experiment: Activity against bile duct PDX; type: cell-based; conditions: bile duct PDX growth; summary of Table 3
Description: as §1, §2, §3

[5] = test system: panel of 30 kinases; experiment: KINOMEscan primary screen; type: binding; conditions: % Ctrl between 0 and 10 selected for Kd
Description: Selected compounds were screened for kinase inhibition using the KINOMEscan™ assay (Eurofins) which is based on a competition binding assay that quantitatively measures the ability of a compound to compete with an immobilized, active-site directed ligand. The assay was performed by combining three components: DNA-tagged kinase; immobilized ligand; and the test compound. The ability of the test compound to compete with the immobilized ligand was measured via quantitative PCR of the DNA tag.
Kinase-tagged T7 phage strains were prepared in an E. coli host derived from the BL21 strain. E. coli were grown to log-phase and infected with T7 phage and incubated with shaking at 32° C. until lysis. The lysates were centrifuged and filtered to remove cell debris. The remaining kinases were produced in HEK-293 cells and subsequently tagged with DNA for qPCR detection. Streptavidin-coated magnetic beads were treated with biotinylated small molecule ligands for 30 minutes at room temperature to generate affinity resins for kinase assays. The liganded beads were blocked with excess biotin and washed with blocking buffer (SeaBlock (Pierce), 1% BSA, 0.05% Tween 20, 1 mM DTT) to remove unbound ligand and to reduce non-specific binding. Binding reactions were assembled by combining kinases, liganded affinity beads, and test compounds in 1× binding buffer (20% SeaBlock, 0.17×PBS, 0.05% Tween 20, 6 mM DTT). Test compounds were prepared as 111× stocks in 100% DMSO. Kds were determined using an 11-point 3-fold compound dilution series with three DMSO control points. All compounds for Kd measurements are distributed by acoustic transfer (non-contact dispensing) in 100% DMSO. The compounds were then diluted directly into the assays such that the final concentration of DMSO was 0.9%. All reactions performed in polypropylene 384-well plate. Each was a final volume of 0.02 ml. The assay plates were incubated at room temperature with shaking for 1 hour and the affinity beads were washed with wash buffer (1×PBS, 0.05% Tween 20). […] The kinase concentration in the eluates was measured by qPCR. […]

SMILES	IC50 [1] [µM]	IC50 [2] [µM]	IC50 [3] [µM]	IC50 [4] [µM]	No. responsive kinases [5]
CCNC(=O)Oc1ccc2c(=O)cc(-c3ccc(CCCC[P+](c4ccccc4)(c4ccccc4)c4ccccc4)cc3)oc2c1O.[Br-] [SND126A, 4-[4-[7-(Ethylcarbamoyloxy)-8-hydroxy-4-oxo-chromen-2-yl]phenyl]butyltriphenylphosphonium bromide]	< 20	< 20	< 20	< 20	
CCNC(=O)Oc1ccc2c(=O)cc(-c3ccc(CCCC[P+](c4ccccc4)(c4ccccc4)c4ccccc4)cc3)oc2c1OC(=O)NCC.[Br-] [SND124, 4-[4-[7,8-Bis(ethylcarbamoyloxy)-4-oxo-chromen-2-yl]phenyl]-butyltriphenylphosphonium bromide]	< 20	< 20	< 20	< 20	
CC(C)NC(=O)Oc1ccc2c(=O)cc(-c3ccc(CCCC[P+](c4ccccc4)(c4ccccc4)c4ccccc4)cc3)oc2c1O [SND127, 4-[4-[7-(Isopropylcarbamoyloxy)-8-hydroxy-4-oxo-chromen-2-yl]phenyl]butyltriphenylphosphonium bromide]				< 20	
O=c1cc(-c2ccc(CCCC[P+](c3ccccc3)(c3ccccc3)c3ccccc3)cc2)oc2c(O)c(O)ccc12 [SND118, 4-[4-(7,8-dihydroxy-4-oxo-chromen-2-yl)phenyl]butyltriphenyl-phosphonium bromide]					1
O=c1cc(-c2ccc(CCCC[P+](c3ccccc3)(c3ccccc3)c3ccccc3)cc2)oc2c3c(ccc12)OCO3.[Br-] [SND123, 4-[4-(6-oxo-[1,3]dioxolo[4,5-h]chromen-8-yl)phenyl]butyl-triphenylphosphonium bromide]	< 20	< 20	< 20	< 20	4
COc1c(O)ccc2c(=O)cc(-c3ccc(CCCC[P+](c4ccccc4)(c4ccccc4)c4ccccc4)cc3)oc12.[Br-] [SND140, (4-(4-(7-hydroxy-8-methoxy-4-oxo-4H-chromen-2-yl)phenyl)butyl)triphenylphosphonium bromide]	< 20	< 20	< 20	< 20	4
